≈ marks a conversion by molar mass, not a printed value.
Experiments:
M. smegmatis SG987 [1] = assay: MIC assay, broth microdilution; format: cell-based, Mycobacterium smegmatis; conditions: for MIC: Mycolicibacterium smegmatis, SG987, read-out: MIC M. smeg. SG987
Excerpt: The protocol used is the broth microdilution method in microtiter plates (MTP), based upon that detailed by the CLSI (Clinical and Laboratory Standards Institute (CLSI). 2006. Methods for Dilution Antimicrobial Susceptibility Tests for Bacteria that Grow Aerobically; Approved Standard. 7th edn. Document M7-A6. Clinical and Laboratory Standards Institute, Wayne, PA.).
Strain: Mycobacterium smegmatis, ATCC 700084, or other Mycobacterium strains (see table below).
Medium: The bacteria culture and the MIC were done using the following medium: MHB - Mueller-Hinton Broth + 0.05% Tween80, purchased from Difco, Tween80 has been added to avoid clumping of the bacteria.
This highest concentration is filled in the first row of the microtiter plate and further diluted in the culture medium for the Mycobacteria (Mueller-Hinton Broth and Middlebrook 7H9 broth). All solutions are freshly prepared under sterile conditions.
Resazurin salt powder (Sigma) is prepared at 0.01 % (wt/vol) in distilled water, sterilized by filtration through a 0.22 µm membrane and stored at 4°C for a week.
Ciprofloxacin, isoniaz-d and rifampicin can be used as reference compounds for control of the assay as well as a solvent control. Minimal inhibitory concentrations (MIC) are determined by the broth microdilution method. 50 µl of the compound solution in DMSO/MeOH are serially diluted directly in the microtiter plate by factor two with Mueller-Hinton broth (MHB)(Difco). Then the wells are inoculated with 50 µl of test organisms in MHB to give a final concentration of 5x10^5 CFU/ml. After microtiter plates are incubated at 37°C for 48 h, the optical density of each well is measured with a Nepheloscan Ascent 1.4 automatic plate reader (Labsystems, Vantaa, Finland). Then 30 µl of resazurin solution is added to each well and plates are allowed to incubate at 37°C for additional 24 h. A change from blue to pink indicates reduction of resazurin and therefore bacterial growth. The MIC is defined as the lowest drug concentration that prevents this colour change.

M. vaccae 10670 = assay: MIC assay, broth microdilution; format: cell-based; conditions: for MIC: Mycolicibacterium vaccae, 10670
M fort. = assay: MIC assay, broth microdilution; format: cell-based
M. aurum = assay: MIC assay, broth microdilution; format: cell-based; conditions: Mycolicibacterium aurum
MDR M. tuberculosis = assay: MIC assay, broth microdilution; format: cell-based; conditions: for MIC: Mycobacterium tuberculosis, read-out: MIC M. 1b.
[2] = Chemical stability in NaCl/HCl/pepsin; format: physicochemical
[3] = Metabolic stability, human; format: in vitro ADME
[4] = Metabolic stability, mouse; format: in vitro ADME
Plasma stability, human = format: in vitro ADME
Plasma stability, mouse = format: in vitro ADME
M. tuberculosis H37Rv = assay: In-vivo mouse survival; conditions: 50 img/kg
M. smegmatis SG987 [5] = assay: Agar diffusion assay; format: cell-based, Mycobacterium smegmatis; parameters: key to colonies in the inhibition zone: (p): few colonies in the inhibition zone; p: colonies in the inhibition zone; P: many colonies in the inhibition zone; A: faint indication of inhibition zone; conditions: for zone of inhibition at 1 µg/mL: Mycolicibacterium smegmatis; for colonies in the inhibition zone: at 1 µg/ml
Experimental: Antimicrobial activity is additionally determined by agar diffusion tests according to: European Pharmacopoeia, 3rd edition, 1997; 13, 118, Deutscher Apotheker Verlag Stuttgart
100 µl suspension of the test organism M. smegmatis SG987 with a density of McFarland standard 0.5 are inoculated into 34 ml of sterile melted agar medium (Nutrient agar from Serva Electrophoresis GmbH, Heidelberg, Germany) and poured into Petri dishes. Wells of 9 mm in diameter are cut in the agar and filled with 50 µl of the compound solution (for concentrations see Table 2). Compounds are dissolved in DMSO in a concentration of 1 mg/ml and further diluted in methanol to the final concentration. Growth inhibition zones around the agar wells are read after overnight incubation at 37°C.

Mycobacteria = conditions: existing anti-tuberculosis drugs, comparison values; cited from earlier work
[6] = Test compound 5 µM in 35mM NaCl, 85 mM HCl, appr. 2000 U pepsin
[7] = Human, test compound 1 µM in NADP (1.3 mM), G6P 3.3 mM, G6PDHase, DMSO
[8] = Mouse, test compound 1 µM in NADP (1.3 mM), G6P 3.3 mM, G6PDHase, DMSO
[9] = Human, test compound 5 µM in plasma
[10] = Mouse, test compound 5 µM in plasma

| Structure (SMILES) | MIC (M. smegmatis SG987 [1]) | MIC (M. vaccae 10670) | MIC (MDR M. tuberculosis) | Chemical Stability [2, 6] | Metabolic Stability Human [3, 7] | Metabolic Stability Mouse [4, 8] | Plasma Stability Human (Plasma stability, human; [9]) | Plasma Stability Mouse (Plasma stability, mouse; [10]) | zone of inhibition at 1 µg/mL (M. smegmatis SG987 [5]) | further results |
| --- | --- | --- | --- | --- | --- | --- | --- | --- | --- | --- |
| O=c1nc(N2CCC(c3ccccc3)CC2)sc2c([N+](=O)[O-])cc(C(F)(F)F)cc12 [Compound 1] | 4 ng/mL (≈ 9.19 nM) | 0.4 ng/mL (≈ 0.919 nM) | < 15 ng/mL | 82% | 120% | 75% | 96% | 71% |  | MIC (M fort.): 12.5 ng/mL (≈ 28.7 nM); MIC (M. aurum): > 100 ng/mL; In-vivo Mouse Survival 4 wks (M. tuberculosis H37Rv): 4 of 10 |
| O=c1nc(N2CCC(c3ccc(Cl)cc3)CC2)sc2c([N+](=O)[O-])cc(C(F)(F)F)cc12 [Compound 2] | < 5 ng/mL | < 0.0012 ng/mL | 4 ng/mL (≈ 8.51 nM) | 52% | 59% | 39% | 86% | 88% | 22 mm | MIC M. smeg. SG987 (M. smegmatis SG987 [1]; M. smeg. SG987): < 5 ng/mL; MIC M. vaccae 10670 (M. vaccae 10670; M. vaccae 10670): < 0.0012 ng/mL; MIC M. 1b. (MDR M. tuberculosis; M. 1b., MDR M. tuberculosis): 4 ng/mL (≈ 8.51 nM) |
| Cc1ccc(C2CCN(c3nc(=O)c4cc(C(F)(F)F)cc([N+](=O)[O-])c4s3)CC2)cc1 [Compound 3] | < 5 ng/mL | < 0.0012 ng/mL | 8 ng/mL (≈ 17.8 nM) | 54% | 30% | 9% | 98% | 108% | < 22 mm |  |
| O=c1nc(N2CCC(c3cccc(F)c3)CC2)sc2c([N+](=O)[O-])cc(C(F)(F)F)cc12 [Compound 4] | < 5 ng/mL | < 0.0012 ng/mL | 16 ng/mL (≈ 35.3 nM) | 71% | 28% | 10% | 99% | 107% | 24 mm |  |
| O=c1nc(N2CCC(c3ccc(F)c(F)c3)CC2)sc2c([N+](=O)[O-])cc(C(F)(F)F)cc12 [Compound 5] | < 5 ng/mL | < 0.0012 ng/mL | 8 ng/mL (≈ 17 nM) | 63% | 49% | 28% | 124% | 111% | 27 mm |  |
| O=c1nc(N2CCC(Cc3ccccc3)CC2)sc2c([N+](=O)[O-])cc(C(F)(F)F)cc12 [Compound 6] | < 5 ng/mL | < 0.0012 ng/mL | 32 ng/mL (≈ 71.2 nM) | 55% | 1% | 0% | 98% | 108% |  |  |
| Cc1cccc(C2CCN(c3nc(=O)c4cc(C(F)(F)F)cc([N+](=O)[O-])c4s3)CC2)c1 [Compound 7] | < 5 ng/mL | < 0.0012 ng/mL | 8 ng/mL (≈ 17.8 nM) | 53% | 21% | 18% | 103% | 100% |  |  |
| O=c1nc(N2CCC(c3ccccc3F)CC2)sc2c([N+](=O)[O-])cc(C(F)(F)F)cc12 [Compound 8] | < 5 ng/mL | < 0.0012 ng/mL | 8 ng/mL (≈ 17.6 nM) | 61% | 69% | 78% | 107% | 105% | 27 mm |  |
| C[C@H]1COC2(CCN(c3nc(=O)c4cc(C(F)(F)F)cc([N+](=O)[O-])c4s3)CC2)O1 [I (Ref.), reference compound] | < 5 ng/mL | 0.625 ng/mL (≈ 1.45 nM) | < 15 ng/mL |  |  |  |  |  | 17 mm | MIC (M fort.): 1.56 ng/mL (≈ 3.62 nM); MIC (M. aurum): > 100000 ng/mL; Chemical Stability ([2]; 5 µM): 98%; Metabolic Stability Human ([3]; human, 1 µM): 107%; Metabolic Stability Mouse ([4]; mouse, 1 µM): 97%; Plasma Stability Human (Plasma stability, human; human, 5 µM): 98%; Plasma Stability Mouse (Plasma stability, mouse; mouse, 5 µM): 45%; colonies in the inhibition zone (M. smegmatis SG987 [5]): p-P |
| O=c1nc(N2CCN(Cc3ccccc3)CC2)sc2c([N+](=O)[O-])cc(C(F)(F)F)cc12 [II (Ref.), reference compound] | 50 ng/mL (≈ 111 nM) | 50 ng/mL (≈ 111 nM) |  |  |  |  |  |  |  | MIC (M fort.): 50 ng/mL (≈ 111 nM) |
| O=C(O)c1cn(C2CC2)c2cc(N3CCNCC3)c(F)cc2c1=O [III (Ref.), ciprofloxacin, reference compound] | 200 ng/mL (≈ 604 nM) |  |  |  |  |  |  |  | 20 mm | colonies in the inhibition zone (M. smegmatis SG987 [5]): p |
| CC[C@@H](CO)NCCN[C@@H](CC)CO [ethambutol] |  |  |  |  |  |  |  |  |  | MIC (Mycobacteria): 1000 to 5000 ng/mL |
| NNC(=O)c1ccncc1 [isoniazid] |  |  |  |  |  |  |  |  |  | MIC (Mycobacteria): 20 to 200 ng/mL |

Source: patent EP2570413A1, “Benzothiazinone derivatives as anti-tuberculosis agents” (The University Of Queensland, priority 2011, dated 2013)
